Consider 14 compounds from ChEMBL document CHEMBL5291721, “A preclinical secondary pharmacology resource illuminates target-adverse drug reaction associations of marketed drugs” (Nat Commun, 2023).

In assay [1] the target is T1, Alpha-2A adrenergic receptor (Homo sapiens, UniProt P08913).
T1 sequence (P08913 whole entry): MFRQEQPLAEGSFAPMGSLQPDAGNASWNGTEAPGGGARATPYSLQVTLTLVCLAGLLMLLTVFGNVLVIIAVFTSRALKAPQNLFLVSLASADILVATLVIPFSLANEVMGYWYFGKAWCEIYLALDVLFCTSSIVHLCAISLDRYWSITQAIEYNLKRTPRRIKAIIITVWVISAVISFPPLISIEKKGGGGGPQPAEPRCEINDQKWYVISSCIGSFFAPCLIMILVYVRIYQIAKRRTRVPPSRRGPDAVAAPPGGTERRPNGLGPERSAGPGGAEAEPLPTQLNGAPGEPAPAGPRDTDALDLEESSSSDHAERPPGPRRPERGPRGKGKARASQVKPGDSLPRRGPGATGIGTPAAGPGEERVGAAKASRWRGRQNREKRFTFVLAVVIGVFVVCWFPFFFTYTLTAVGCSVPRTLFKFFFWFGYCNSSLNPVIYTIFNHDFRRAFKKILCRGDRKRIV
It is filed as functional, cell-based.

Assay [2] has as its target Beta-1 adrenergic receptor (Homo sapiens, UniProt P08588). Type of assay: functional.
Another assay has as its target T2, Endothelin-1 receptor (Homo sapiens, UniProt P25101).
T2 sequence (P25101 whole entry): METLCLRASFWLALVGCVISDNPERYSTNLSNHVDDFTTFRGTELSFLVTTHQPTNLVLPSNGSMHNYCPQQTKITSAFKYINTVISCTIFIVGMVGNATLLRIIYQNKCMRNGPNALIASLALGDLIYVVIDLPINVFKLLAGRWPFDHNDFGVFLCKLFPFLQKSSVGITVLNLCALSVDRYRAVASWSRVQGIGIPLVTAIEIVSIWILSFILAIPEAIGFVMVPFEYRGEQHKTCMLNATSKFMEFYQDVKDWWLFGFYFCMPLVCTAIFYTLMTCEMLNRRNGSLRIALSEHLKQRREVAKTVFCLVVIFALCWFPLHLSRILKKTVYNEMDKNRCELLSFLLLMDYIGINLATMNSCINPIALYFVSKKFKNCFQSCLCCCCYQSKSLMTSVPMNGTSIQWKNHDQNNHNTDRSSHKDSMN

Assay [3] has as its target Gamma-aminobutyric acid receptor subunit alpha-1 (Rattus norvegicus, UniProt P62813).
The target of assay [4] is T3, 5-hydroxytryptamine receptor 3A (Homo sapiens, UniProt P46098).
T3 sequence (P46098 whole entry): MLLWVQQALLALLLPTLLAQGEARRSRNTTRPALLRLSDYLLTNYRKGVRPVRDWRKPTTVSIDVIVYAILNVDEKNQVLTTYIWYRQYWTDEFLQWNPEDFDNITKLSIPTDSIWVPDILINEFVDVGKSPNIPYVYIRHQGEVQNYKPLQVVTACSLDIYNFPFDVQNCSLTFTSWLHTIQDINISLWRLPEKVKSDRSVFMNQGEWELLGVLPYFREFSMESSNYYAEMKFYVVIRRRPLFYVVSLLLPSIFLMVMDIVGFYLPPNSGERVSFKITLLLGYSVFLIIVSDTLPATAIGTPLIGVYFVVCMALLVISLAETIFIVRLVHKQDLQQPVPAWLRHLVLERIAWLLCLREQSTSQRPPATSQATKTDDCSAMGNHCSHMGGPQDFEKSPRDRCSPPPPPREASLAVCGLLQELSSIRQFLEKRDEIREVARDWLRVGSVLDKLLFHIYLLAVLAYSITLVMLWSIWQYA
It is filed as functional.

Another assay deals with Motilin receptor (Homo sapiens, UniProt O43193).
Assay [5] addresses T4, Equilibrative nucleoside transporter 1 (Homo sapiens, UniProt Q99808).
T4 sequence (Q99808 whole entry): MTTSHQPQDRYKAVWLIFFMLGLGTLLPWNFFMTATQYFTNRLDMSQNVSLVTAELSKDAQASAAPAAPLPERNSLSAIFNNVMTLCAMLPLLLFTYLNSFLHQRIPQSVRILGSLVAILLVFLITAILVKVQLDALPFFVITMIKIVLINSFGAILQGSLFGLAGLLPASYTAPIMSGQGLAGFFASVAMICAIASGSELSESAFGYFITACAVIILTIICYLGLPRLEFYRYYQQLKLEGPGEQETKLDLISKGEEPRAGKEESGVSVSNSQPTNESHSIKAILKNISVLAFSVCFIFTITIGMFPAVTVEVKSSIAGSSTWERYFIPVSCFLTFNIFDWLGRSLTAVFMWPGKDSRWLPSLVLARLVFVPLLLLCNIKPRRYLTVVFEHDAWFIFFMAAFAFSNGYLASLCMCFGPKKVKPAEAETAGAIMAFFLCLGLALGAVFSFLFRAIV

For assay [6], the target named is T5, Amine oxidase [flavin-containing] A (Homo sapiens, UniProt P21397).
T5 sequence (P21397 whole entry): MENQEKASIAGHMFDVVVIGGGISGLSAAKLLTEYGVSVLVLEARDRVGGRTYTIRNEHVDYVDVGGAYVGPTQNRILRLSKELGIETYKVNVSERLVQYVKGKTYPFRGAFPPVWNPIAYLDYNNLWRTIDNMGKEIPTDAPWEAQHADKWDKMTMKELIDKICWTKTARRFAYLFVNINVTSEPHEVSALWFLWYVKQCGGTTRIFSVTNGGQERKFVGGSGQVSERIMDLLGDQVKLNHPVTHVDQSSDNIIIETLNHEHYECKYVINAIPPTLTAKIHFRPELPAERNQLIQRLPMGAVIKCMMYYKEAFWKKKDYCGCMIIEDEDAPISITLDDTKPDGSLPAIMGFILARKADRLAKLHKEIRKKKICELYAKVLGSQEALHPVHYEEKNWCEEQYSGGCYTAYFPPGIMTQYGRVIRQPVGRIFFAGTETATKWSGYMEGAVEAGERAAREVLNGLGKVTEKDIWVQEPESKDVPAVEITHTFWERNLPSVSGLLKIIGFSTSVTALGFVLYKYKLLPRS
It is filed as functional.

In a further assay the target is D(3) dopamine receptor (Homo sapiens, UniProt P35462).
Note: assay procedure not described here.

D(3) dopamine receptor, sequence (P35462 whole entry): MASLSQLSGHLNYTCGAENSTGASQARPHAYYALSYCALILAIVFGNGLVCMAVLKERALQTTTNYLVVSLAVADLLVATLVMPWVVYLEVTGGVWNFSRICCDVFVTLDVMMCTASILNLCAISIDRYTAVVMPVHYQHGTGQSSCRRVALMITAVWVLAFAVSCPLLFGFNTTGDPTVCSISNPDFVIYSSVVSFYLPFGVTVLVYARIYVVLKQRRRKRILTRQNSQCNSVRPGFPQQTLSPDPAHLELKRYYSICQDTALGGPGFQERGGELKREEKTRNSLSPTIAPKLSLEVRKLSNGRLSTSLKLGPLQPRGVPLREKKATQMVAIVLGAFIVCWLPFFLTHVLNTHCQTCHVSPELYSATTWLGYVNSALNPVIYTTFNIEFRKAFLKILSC
Beta-1 adrenergic receptor, sequence (P08588 whole entry): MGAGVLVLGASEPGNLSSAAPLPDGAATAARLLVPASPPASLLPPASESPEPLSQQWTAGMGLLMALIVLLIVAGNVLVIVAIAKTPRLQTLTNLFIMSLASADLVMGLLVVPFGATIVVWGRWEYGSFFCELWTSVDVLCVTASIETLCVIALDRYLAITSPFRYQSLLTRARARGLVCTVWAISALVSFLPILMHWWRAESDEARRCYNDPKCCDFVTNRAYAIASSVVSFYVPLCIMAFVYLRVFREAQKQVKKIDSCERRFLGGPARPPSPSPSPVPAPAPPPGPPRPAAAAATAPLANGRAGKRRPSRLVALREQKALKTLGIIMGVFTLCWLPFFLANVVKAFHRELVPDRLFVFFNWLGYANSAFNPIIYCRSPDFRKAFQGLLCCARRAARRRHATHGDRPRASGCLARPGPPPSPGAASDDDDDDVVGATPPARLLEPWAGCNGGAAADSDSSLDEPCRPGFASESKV
Motilin receptor, sequence (O43193 whole entry): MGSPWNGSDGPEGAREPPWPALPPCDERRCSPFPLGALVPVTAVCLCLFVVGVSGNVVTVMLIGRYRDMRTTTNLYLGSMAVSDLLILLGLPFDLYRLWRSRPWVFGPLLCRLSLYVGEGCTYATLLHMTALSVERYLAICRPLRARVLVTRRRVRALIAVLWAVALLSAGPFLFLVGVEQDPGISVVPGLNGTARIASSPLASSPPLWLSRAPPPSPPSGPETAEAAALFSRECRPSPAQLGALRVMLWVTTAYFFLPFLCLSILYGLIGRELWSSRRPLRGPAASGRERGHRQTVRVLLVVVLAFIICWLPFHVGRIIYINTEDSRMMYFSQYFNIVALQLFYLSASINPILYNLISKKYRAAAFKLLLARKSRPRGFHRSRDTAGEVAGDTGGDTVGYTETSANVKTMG
Gamma-aminobutyric acid receptor subunit alpha-1, sequence (P62813 whole entry): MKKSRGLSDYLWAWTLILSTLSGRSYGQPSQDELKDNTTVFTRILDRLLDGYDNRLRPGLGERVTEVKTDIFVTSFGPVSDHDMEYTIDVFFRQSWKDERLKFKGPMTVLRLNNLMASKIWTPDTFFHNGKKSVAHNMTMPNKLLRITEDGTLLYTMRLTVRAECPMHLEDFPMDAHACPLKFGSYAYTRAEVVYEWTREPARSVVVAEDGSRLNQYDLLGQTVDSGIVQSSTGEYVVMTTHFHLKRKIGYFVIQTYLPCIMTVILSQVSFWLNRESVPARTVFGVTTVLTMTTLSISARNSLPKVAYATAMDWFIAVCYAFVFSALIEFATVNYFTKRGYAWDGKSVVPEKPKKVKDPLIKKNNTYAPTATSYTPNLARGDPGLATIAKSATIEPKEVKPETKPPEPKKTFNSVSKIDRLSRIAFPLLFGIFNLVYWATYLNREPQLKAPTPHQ

As usually defined, the AC50 is the concentration at which the activity in the assay is half-maximal. Read a low AC50 as activity at low concentration. On to `C[C@]12CCC(=O)C=C1CC[C@@H]1[C@@H]2CC[C@@]2(C)[C@H]1CC[C@]2(C)O` [METHYLTESTOSTERONE], for which the AC50 (in assay [1]; in [2]; at Endothelin-1 receptor; in [3]; in assay [4]; on Motilin receptor) was greater than 30 µM each time. Further, the AC50 (in [5]; in assay [6]; on D(3) dopamine receptor) was greater than 30 µM in each case.

For `C=C1CC[C@@]2(O)[C@H]3Cc4ccc(O)c5c4[C@@]2(CCN3CC2CC2)[C@H]1O5`, the AC50 (in assay [1]; in [2]; on Endothelin-1 receptor; in assay [3]; in assay [4]; on Motilin receptor) was greater than 30 µM throughout. Besides, the AC50 (in assay [5]; in [6]; on D(3) dopamine receptor) was greater than 30 µM in each case.

For the compound `COc1ccc2c(c1)c(CC(=O)OCC(=O)O)c(C)n2C(=O)c1ccc(Cl)cc1` [ACEMETACIN], the AC50 (in assay [1]; in assay [2]; on Endothelin-1 receptor; in assay [3]; in assay [4]; on Motilin receptor) was greater than 30 µM each time. Besides, the AC50 (in assay [5]; in assay [6]; at D(3) dopamine receptor) was greater than 30 µM in each case.

Regarding `CN[C@@H](C)[C@H](O)c1ccccc1` [EPHEDRINE], the AC50 in [1] was greater than 10 µM; in [2], greater than 10 µM; on Endothelin-1 receptor, greater than 30 µM; in assay [3] it was greater than 10 µM; in [4] it was greater than 30 µM; at Motilin receptor, greater than 10 µM. Moreover, the AC50 was greater than 30 µM in [5], greater than 10 µM in assay [6] and greater than 10 µM at D(3) dopamine receptor.

`[H]/N=C(/N)c1ccc(NCc2nc3cc(C(=O)N(CCC(=O)O)c4ccccn4)ccc3n2C)cc1` [DABIGATRAN]: the AC50 (in [1]; in [2]; at Endothelin-1 receptor; in assay [3]; in assay [4]; on Motilin receptor) was greater than 30 µM in each case. Also, the concentration at half-maximal activity (AC50) (in assay [5]; in assay [6]; on D(3) dopamine receptor) was greater than 30 µM each time.

Regarding `Cc1cc2c(OCC(CNC(C)(C)C)OC(=O)c3ccccc3)cccc2[nH]1` (stereo unspecified) [BOPINDOLOL], the AC50 in [1] was greater than 30 µM; in assay [2], 0.0048 µM; on Endothelin-1 receptor, greater than 30 µM; in [3], greater than 30 µM; in assay [4], greater than 30 µM; on Motilin receptor, 23 µM. The AC50 (in [5]; in assay [6]; on D(3) dopamine receptor) was greater than 30 µM each time.

`CN(C)C(=O)OC1N=C(c2ccccc2)c2cc(Cl)ccc2N(C)C1=O` (stereo unspecified) [CAMAZEPAM]: the AC50 in [1] was greater than 10 µM; in assay [2] it was greater than 10 µM; on Endothelin-1 receptor, greater than 30 µM; in assay [3], greater than 10 µM; in assay [4], greater than 10 µM; at Motilin receptor it was greater than 10 µM. Besides, the figures for the AC50 (in assay [5]; in assay [6]; on D(3) dopamine receptor) were greater than 30 µM, greater than 10 µM and greater than 10 µM, respectively.

As to `O=C(C[S+]([O-])C(c1ccccc1)c1ccccc1)NO` (stereo unspecified), the AC50 (in assay [1]; in assay [2]; at Endothelin-1 receptor; in assay [3]; in assay [4]; on Motilin receptor) was greater than 30 µM in each case. Further, the concentration at half-maximal activity (AC50) (in [5]; in assay [6]; on D(3) dopamine receptor) was greater than 30 µM in each case.

In the case of `Cc1cc(-c2ccccc2)nnc1NCCN1CCOCC1` [MINAPRINE], the AC50 was greater than 10 µM in assay [1]; greater than 10 µM in assay [2]; greater than 30 µM on Endothelin-1 receptor; greater than 10 µM in assay [3]; greater than 30 µM in assay [4]; greater than 10 µM on Motilin receptor. For the same compound, the AC50 in [5] was greater than 30 µM; in assay [6], greater than 10 µM; at D(3) dopamine receptor, greater than 10 µM.

Consider `Cc1c(O)c(=O)ccn1C` [DEFERIPRONE], for which the AC50 (in assay [1]; in assay [2]; on Endothelin-1 receptor; in assay [3]; in [4]; on Motilin receptor) was greater than 30 µM each time. The AC50 (in [5]; in assay [6]; on D(3) dopamine receptor) was greater than 30 µM throughout.

On to `CN1CCN(C(=O)OC2c3nccnc3C(=O)N2c2ccc(Cl)cn2)CC1` (stereo unspecified) [ZOPICLONE], for which the AC50 in assay [1] was greater than 10 µM; in assay [2], greater than 30 µM; at Endothelin-1 receptor, greater than 30 µM; in assay [3], greater than 10 µM; in assay [4], greater than 10 µM; on Motilin receptor, greater than 30 µM. For the same compound, the half-maximal activity concentration (AC50) in assay [5] is greater than 30 µM; in [6] it was greater than 30 µM; on D(3) dopamine receptor, greater than 10 µM.

Turning to `COc1ccc2cccc(CCNC(C)=O)c2c1` [AGOMELATINE], the AC50 in assay [1] is greater than 30 µM; in [2], greater than 10 µM; at Endothelin-1 receptor, greater than 30 µM; in assay [3], greater than 10 µM; in assay [4] it was greater than 30 µM; at Motilin receptor, greater than 10 µM. Also, the AC50 in assay [5] was greater than 30 µM; in [6], greater than 10 µM; at D(3) dopamine receptor, greater than 10 µM.

Consider `CC[C@]1(O)C[C@@H]2CN(CCc3c([nH]c4ccccc34)[C@@](C(=O)OC)(c3cc4c(cc3OC)N(C)[C@H]3[C@@](O)(C(N)=O)[C@H](O)[C@]5(CC)C=CCN6CC[C@]43[C@@H]65)C2)C1` [VINDESINE], for which the AC50 in [1] was greater than 30 µM; in [2], greater than 30 µM; on Endothelin-1 receptor it was greater than 30 µM; in assay [3] it was greater than 30 µM; in assay [4], greater than 30 µM; on Motilin receptor it was 4.8 µM. Also, the AC50 (in assay [5]; in [6]; at D(3) dopamine receptor) was greater than 30 µM each time.

As to `CN1C(=O)COc2c(C(=O)NC3CN4CCC3CC4)cc(Cl)cc21` (stereo unspecified) [AZASETRON], the AC50 was greater than 30 µM in [1]; greater than 30 µM in assay [2]; greater than 30 µM at Endothelin-1 receptor; greater than 30 µM in assay [3]; 0.0162 µM in assay [4]; greater than 30 µM on Motilin receptor. For the same compound, the AC50 (in assay [5]; in assay [6]; on D(3) dopamine receptor) was greater than 30 µM throughout.
